Laboratory results taken from the supplement of paper PMC9663587.

What was measured:
[1] = compound: CCc1cnn2c(NCc3ccc[n+]([O-])c3)cc(N3CCCC[C@H]3CCO)nc12; assay: GR value, 72 h; higher = faster growth (1 = untreated, <0 = killing);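 further: breast cancer and non-malignant breast epithelial lines, nine half-log doses, viable cells counted by Hoechst and LIVE/DEAD dye imaging versus time-zero plates and DMSO controls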
Neratinib/HKI272 = compound: CCOc1cc2ncc(C#N)c(Nc3ccc(OCc4ccccn4)c(Cl)c3)c2cc1NC(=O)/C=C/CN(C)C [Neratinib/HKI272]; assay: as above
THZ531 = compound: CN(C)C/C=C/C(=O)Nc1ccc(C(=O)N2CCC[C@@H](Nc3ncc(Cl)c(-c4c[nH]c5ccccc45)n3)C2)cc1 [THZ531]; assay: as above
BSJ-03-123 = compound: CC(=O)c1c(C)c2cnc(Nc3ccc(N4CCN(CCOCCOCCOCCNC(=O)COc5cccc6c5C(=O)N(C5CCC(=O)NC5=O)C6=O)CC4)cn3)nc2n(C2CCCC2)c1=O [BSJ-03-123]; assay: as above
[2] = compound: CCN1CCN(Cc2ccc(Nc3ncc(F)c(-c4cc(F)c5nc(C)n(C(C)C)c5c4)n3)nc2)CC1; assay: as above
Flavopiridol [3] = compound: T1, CN1CC[C@H](c2c(O)cc(O)c3c(=O)cc(-c4ccccc4Cl)oc23)[C@H](O)C1 [Flavopiridol]; assay: as above
THZ1 = compound: CN(C)C/C=C/C(=O)Nc1ccc(C(=O)Nc2cccc(Nc3ncc(Cl)c(-c4c[nH]c5ccccc45)n3)c2)cc1 [THZ1]; assay: as above
YKL-5-124 = compound: C=CC(=O)Nc1ccc(C(=O)Nc2[nH]nc3c2CN(C(=O)N[C@H](CN(C)C)c2ccccc2)C3(C)C)cc1 [YKL-5-124]; assay: as above
[4] = compound: CC(=O)c1c(C)c2cnc(Nc3ccc(N4CCNCC4)cn3)nc2n(C2CCCC2)c1=O; assay: as above
LEE011/Ribociclib = compound: CN(C)C(=O)c1cc2cnc(Nc3ccc(N4CCNCC4)cn3)nc2n1C1CCCC1 [LEE011/Ribociclib]; assay: as above
[5] = compound: CO[C@@H](C)Cn1c(=O)n(C)c2cnc3ccc(-c4cncc(C(C)(C)O)c4)cc3c21
Taselisib/GDC0032 = compound: Cc1nc(-c2cn3c(n2)-c2ccc(-c4cnn(C(C)(C)C(N)=O)c4)cc2OCC3)n(C(C)C)n1 [Taselisib/GDC0032]
ABT-737 = compound: CN(C)CC[C@H](CSc1ccccc1)Nc1ccc(S(=O)(=O)NC(=O)c2ccc(N3CCN(Cc4ccccc4-c4ccc(Cl)cc4)CC3)cc2)cc1[N+](=O)[O-] [ABT-737]
Saracatinib/AZD0530 = compound: CN1CCN(CCOc2cc(OC3CCOCC3)c3c(Nc4c(Cl)ccc5c4OCO5)ncnc3c2)CC1 [Saracatinib/AZD0530]
Flavopiridol [6] = compound: T1, Flavopiridol
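Wherever GR50, 72 h is given: breast cancer and non-malignant breast epithelial cell lines, Deep Dye Drop or Dye Drop imaging, nine half-log doses, GR normalized to time-zero plates and DMSO-only controls.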

Question: For MDAMB415, which GR value ([1]; 0.0001 µM) is on record?
Answer: 1.06 GR

Question: And the GR value ([1]; 0.0003162 µM)?
Answer: 1.04 GR

Question: What about the GR value ([1]; 0.001 µM) of the same cell line?
Answer: 1.18 GR

Question: And the GR value ([1]; 0.003162 µM)?
Answer: 1.2 GR

Question: And the GR value ([1]; 0.01 µM)?
Answer: 0.935 GR

Question: And the GR value ([1]; 0.03162 µM)?
Answer: -0.112 GR

Question: And the GR value ([1]; 0.1 µM)?
Answer: -0.482 GR

Question: What about the GR value ([1]; 0.3162 µM) of the same cell line?
Answer: -0.48 GR

Question: And the GR value ([1]; 1 µM)?
Answer: -0.484 GR

Question: What about the GR value (Neratinib/HKI272; 0.0003162 µM) of the same cell line?
Answer: 1.06 GR

Question: And the GR value (Neratinib/HKI272; 0.001 µM)?
Answer: 1.08 GR

Question: And the GR value (Neratinib/HKI272; 0.003162 µM)?
Answer: 1.13 GR

Question: And the GR value (Neratinib/HKI272; 0.01 µM)?
Answer: 1.1 GR

Question: And the GR value (Neratinib/HKI272; 0.03162 µM)?
Answer: 1.06 GR

Question: And the GR value (Neratinib/HKI272; 0.1 µM)?
Answer: 0.989 GR

Question: What about the GR value (Neratinib/HKI272; 0.3162 µM) of the same cell line?
Answer: 0.889 GR

Question: What about the GR value (Neratinib/HKI272; 1 µM) of the same cell line?
Answer: 0.737 GR

Question: And the GR value (Neratinib/HKI272; 3.162 µM)?
Answer: 0.0984 GR

Question: And the GR value (THZ531; 0.0001 µM)?
Answer: 0.975 GR

Question: What about the GR value (THZ531; 0.0003162 µM) of the same cell line?
Answer: 0.9 GR

Question: And the GR value (THZ531; 0.001 µM)?
Answer: 0.875 GR

Question: And the GR value (THZ531; 0.003162 µM)?
Answer: 1.05 GR

Question: And the GR value (THZ531; 0.01 µM)?
Answer: 0.946 GR

Question: And the GR value (THZ531; 0.03162 µM)?
Answer: 0.731 GR

Question: And the GR value (THZ531; 0.1 µM)?
Answer: 0.0348 GR

Question: And the GR value (THZ531; 0.3162 µM)?
Answer: -0.33 GR

Question: And the GR value (THZ531; 1 µM)?
Answer: -0.343 GR

Question: And the GR value (BSJ-03-123; 0.001 µM)?
Answer: 0.922 GR

Question: What about the GR value (BSJ-03-123; 0.003162 µM) of the same cell line?
Answer: 0.789 GR

Question: And the GR value (BSJ-03-123; 0.01 µM)?
Answer: 0.714 GR

Question: And the GR value (BSJ-03-123; 0.03162 µM)?
Answer: 0.825 GR

Question: What about the GR value (BSJ-03-123; 0.1 µM) of the same cell line?
Answer: 0.744 GR

Question: And the GR value (BSJ-03-123; 0.3162 µM)?
Answer: 0.674 GR

Question: What about the GR value (BSJ-03-123; 1 µM) of the same cell line?
Answer: 0.61 GR

Question: And the GR value (BSJ-03-123; 3.162 µM)?
Answer: 0.545 GR

Question: And the GR value (BSJ-03-123; 10 µM)?
Answer: 0.181 GR

Question: And the GR value ([2]; 0.001 µM)?
Answer: 0.878 GR

Question: What about the GR value ([2]; 0.003162 µM) of the same cell line?
Answer: 0.833 GR

Question: And the GR value ([2]; 0.01 µM)?
Answer: 0.478 GR

Question: And the GR value ([2]; 0.03162 µM)?
Answer: 0.21 GR

Question: What about the GR value ([2]; 0.1 µM) of the same cell line?
Answer: 0.136 GR

Question: And the GR value ([2]; 0.3162 µM)?
Answer: 0.113 GR

Question: And the GR value ([2]; 1 µM)?
Answer: 0.086 GR

Question: What about the GR value ([2]; 3.162 µM) of the same cell line?
Answer: 0.0858 GR

Question: And the GR value ([2]; 10 µM)?
Answer: 0.0092 GR

Question: And the GR value (Flavopiridol [3]; 0.0001 µM)?
Answer: 1 GR

Question: And the GR value (Flavopiridol [3]; 0.0003162 µM)?
Answer: 1.01 GR

Question: What about the GR value (Flavopiridol [3]; 0.001 µM) of the same cell line?
Answer: 0.869 GR

Question: And the GR value (Flavopiridol [3]; 0.003162 µM)?
Answer: 0.766 GR

Question: And the GR value (Flavopiridol [3]; 0.01 µM)?
Answer: 0.972 GR

Question: What about the GR value (Flavopiridol [3]; 0.03162 µM) of the same cell line?
Answer: 0.821 GR

Question: What about the GR value (Flavopiridol [3]; 0.1 µM) of the same cell line?
Answer: 0.788 GR

Question: And the GR value (Flavopiridol [3]; 0.3162 µM)?
Answer: 0.25 GR

Question: What about the GR value (Flavopiridol [3]; 1 µM) of the same cell line?
Answer: -0.298 GR

Question: What about the GR value (THZ1; 0.0001 µM) of the same cell line?
Answer: 0.979 GR

Question: What about the GR value (THZ1; 0.0003162 µM) of the same cell line?
Answer: 0.999 GR

Question: What about the GR value (THZ1; 0.001 µM) of the same cell line?
Answer: 0.995 GR

Question: What about the GR value (THZ1; 0.003162 µM) of the same cell line?
Answer: 0.857 GR

Question: What about the GR value (THZ1; 0.01 µM) of the same cell line?
Answer: 0.797 GR

Question: And the GR value (THZ1; 0.03162 µM)?
Answer: 0.524 GR

Question: And the GR value (THZ1; 0.1 µM)?
Answer: 0.216 GR

Question: What about the GR value (THZ1; 0.3162 µM) of the same cell line?
Answer: -0.218 GR

Question: What about the GR value (THZ1; 1 µM) of the same cell line?
Answer: -0.408 GR

Question: What about the GR value (YKL-5-124; 0.001 µM) of the same cell line?
Answer: 0.597 GR

Question: And the GR value (YKL-5-124; 0.003162 µM)?
Answer: 0.543 GR

Question: What about the GR value (YKL-5-124; 0.01 µM) of the same cell line?
Answer: 0.372 GR

Question: And the GR value (YKL-5-124; 0.03162 µM)?
Answer: 0.396 GR

Question: And the GR value (YKL-5-124; 0.1 µM)?
Answer: 0.338 GR

Question: What about the GR value (YKL-5-124; 0.3162 µM) of the same cell line?
Answer: 0.279 GR

Question: And the GR value (YKL-5-124; 1 µM)?
Answer: 0.323 GR

Question: And the GR value (YKL-5-124; 3.162 µM)?
Answer: 0.24 GR

Question: And the GR value (YKL-5-124; 10 µM)?
Answer: -0.0052 GR

Question: And the GR value ([4]; 0.0003162 µM)?
Answer: 0.995 GR

Question: What about the GR value ([4]; 0.001 µM) of the same cell line?
Answer: 0.983 GR

Question: And the GR value ([4]; 0.003162 µM)?
Answer: 0.933 GR

Question: And the GR value ([4]; 0.01 µM)?
Answer: 0.791 GR

Question: What about the GR value ([4]; 0.03162 µM) of the same cell line?
Answer: 0.498 GR

Question: What about the GR value ([4]; 0.1 µM) of the same cell line?
Answer: 0.298 GR

Question: And the GR value ([4]; 0.3162 µM)?
Answer: 0.17 GR

Question: What about the GR value ([4]; 1 µM) of the same cell line?
Answer: 0.178 GR

Question: And the GR value ([4]; 3.162 µM)?
Answer: 0.121 GR

Question: What about the GR value (LEE011/Ribociclib; 0.001 µM) of the same cell line?
Answer: 0.708 GR

Question: And the GR value (LEE011/Ribociclib; 0.003162 µM)?
Answer: 0.659 GR

Question: And the GR value (LEE011/Ribociclib; 0.01 µM)?
Answer: 0.504 GR

Question: And the GR value (LEE011/Ribociclib; 0.03162 µM)?
Answer: 0.395 GR

Question: And the GR value (LEE011/Ribociclib; 0.1 µM)?
Answer: 0.287 GR

Question: And the GR value (LEE011/Ribociclib; 0.3162 µM)?
Answer: 0.248 GR

Question: And the GR value (LEE011/Ribociclib; 1 µM)?
Answer: 0.264 GR

Question: And the GR value (LEE011/Ribociclib; 3.162 µM)?
Answer: 0.278 GR

Question: And the GR value (LEE011/Ribociclib; 10 µM)?
Answer: 0.222 GR

Question: What about the “GR50, 72 h” value [5] of the same cell line?
Answer: < 0.001 µM

Question: What about the “GR50, 72 h” value (Taselisib/GDC0032) of the same cell line?
Answer: 0.293 µM

Question: And the “GR50, 72 h” value (ABT-737)?
Answer: 7.69 µM

Question: And the “GR50, 72 h” value (Saracatinib/AZD0530)?
Answer: 4.22 µM

Question: And the “GR50, 72 h” value (Flavopiridol [6])?
Answer: 0.172 µM
